Measurements published in ChEMBL document CHEMBL1201862, “PubChem BioAssay data set” (2004).
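48-hour exposure; five concentrations; linearly interpolated endpoints. At the GI50, growth is halved.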 Active and inactive are the calls of the source. Cut-off read from the data, not from the text of the source: active = GI50 up to about 1.1 µM and inactive = higher.

How the values were obtained:
Assay in all cases: growth of human tumour cells (NCI), 48 h
[1] = system: U-251
[2] = system: MDA-MB-231
[3] = system: UACC-62
[4] = system: OVCAR-3
[5] = system: MDA-N
[6] = system: K562
[7] = system: HOP-92
[8] = system: DU-145
[9] = system: SW-620
[10] = system: SN12C
[11] = system: OVCAR-5
[12] = system: HCT-15
[13] = system: OVCAR-4
[14] = system: LOX IMVI
[15] = system: CAKI-1
[16] = system: PC-3
[17] = system: SK-MEL-5
[18] = system: NCI-H23
[19] = system: HCT-116

| Compound | GI50 [1] | GI50 [2] | GI50 [3] | GI50 [4] | GI50 [5] | GI50 [6] | GI50 [7] | GI50 [8] | GI50 [9] | GI50 [10] | GI50 [11] | GI50 [12] [µM] | GI50 [13] | GI50 [14] | GI50 [15] | GI50 [16] | GI50 [17] | GI50 [18] | GI50 [19] |
| --- | --- | --- | --- | --- | --- | --- | --- | --- | --- | --- | --- | --- | --- | --- | --- | --- | --- | --- | --- |
| CC1OC(O[C@H]2C3C=CO[C@@H](OC4OC(CO)C(O)C(O)C4O)C3[C@@]3(COC(=O)/C=C/c4ccc(O)cc4)O[C@@H]23)C(O)C(O)C1O (some centres not stated) | > 100 µM (inactive) | > 100 µM (inactive) | > 100 µM (inactive) | > 100 µM (inactive) | > 100 µM (inactive) | > 100 µM (inactive) | > 100 µM (inactive) | > 100 µM (inactive) | > 100 µM (inactive) | > 100 µM (inactive) | > 100 µM (inactive) | > 100 | > 100 µM (inactive) | > 100 µM (inactive) | > 100 µM (inactive) | > 100 µM (inactive) | > 100 µM (inactive) | > 100 µM (inactive) | > 100 µM (inactive) |
| O=C(O)CCc1nc2c(n1Cc1ccccc1)C(=O)c1ccccc1C2=O | 56 µM (inactive) | 33.5 µM (inactive) | 38 µM (inactive) | 27.9 µM (inactive) | 21.5 µM (inactive) | 57.3 µM (inactive) | 5.45 µM (inactive) | > 100 µM (inactive) | 31.8 µM (inactive) | 44.5 µM (inactive) | > 100 µM (inactive) | 48.8 | > 100 µM (inactive) | 27.2 µM (inactive) | > 100 µM (inactive) | 72.9 µM (inactive) | 21.2 µM (inactive) | 30.3 µM (inactive) | 36.3 µM (inactive) |
| N=C(N)NS(=O)(=O)c1ccc(NC(=O)c2cccc3c(NNc4ccc(S(=O)(=O)N=C(N)N)cc4)c4ccccc4nc23)cc1 | 28.4 µM (inactive) | 46.6 µM (inactive) | 46.9 µM (inactive) | 38.2 µM (inactive) | 91.4 µM (inactive) | 28.1 µM (inactive) | 47.4 µM (inactive) | > 100 µM (inactive) | 48.9 µM (inactive) | > 100 µM (inactive) | > 100 µM (inactive) | 37.8 | 80.5 µM (inactive) | 34.8 µM (inactive) | > 100 µM (inactive) | 61 µM (inactive) | 56.9 µM (inactive) | 52.4 µM (inactive) | 35.7 µM (inactive) |
| CC1(C)Cc2nc3c(cc2C(=O)C1/C=N/C(C#N)=C(\N)C#N)C(=O)C(/C=N/C(C#N)=C(\N)C#N)C(C)(C)C3 (configuration not stated) | 2.04 µM (inactive) | 2.82 µM (inactive) | 1.83 µM (inactive) | 2.77 µM (inactive) | 2.41 µM (inactive) | 3.05 µM (inactive) | 1.7 µM (inactive) | 2.3 µM (inactive) | 2.57 µM (inactive) | 2.06 µM (inactive) | 2.34 µM (inactive) | 2.36 | 4.04 µM (inactive) | 2.09 µM (inactive) | 1.65 µM (inactive) | 1.99 µM (inactive) | 2 µM (inactive) | 2.71 µM (inactive) | 1.54 µM (inactive) |
| C[C@@]12C(=O)OC(=O)[C@]1(C)[C@H]1CC[C@@H]2O1 [CANTHARIDIN] | 1.41 µM (inactive) | 1.33 µM (inactive) | 2.12 µM (inactive) | 0.759 µM (active) | 2.91 µM (inactive) | 2.3 µM (inactive) | 0.61 µM (active) | 1.02 µM (active) | 3.84 µM (inactive) | 2.01 µM (inactive) | 2.45 µM (inactive) | 4.06 | 2.58 µM (inactive) | 2.23 µM (inactive) | 0.791 µM (active) | 0.279 µM (active) | 0.973 µM (active) | 5.07 µM (inactive) | 1.98 µM (inactive) |
| CCCCCCCCCCCCCCCCCC(=O)OCC(COC1OC(COP(=O)(O)O)C(O)C(O)C1O)OC(=O)CCCCCCCCCCCCCCCCC (configuration not stated) | 6.71 µM (inactive) | 3.04 µM (inactive) | 8.57 µM (inactive) | 8.87 µM (inactive) | 10.7 µM (inactive) | 9.89 µM (inactive) | 4.14 µM (inactive) | 9.62 µM (inactive) | 10.3 µM (inactive) | 7 µM (inactive) | 5.28 µM (inactive) | 7.52 | 7.41 µM (inactive) | 9.06 µM (inactive) | 9.73 µM (inactive) | 7.62 µM (inactive) | 9.1 µM (inactive) | 7.78 µM (inactive) | 8.83 µM (inactive) |
| Nc1nc(Cl)cc(NCCO)n1 | > 100 µM (inactive) | > 100 µM (inactive) | > 100 µM (inactive) | > 100 µM (inactive) | > 100 µM (inactive) | > 100 µM (inactive) | > 100 µM (inactive) | > 100 µM (inactive) | > 100 µM (inactive) | > 100 µM (inactive) | > 100 µM (inactive) | > 100 | > 100 µM (inactive) | > 100 µM (inactive) | > 100 µM (inactive) | > 100 µM (inactive) | > 100 µM (inactive) | > 100 µM (inactive) | > 100 µM (inactive) |
| CC(C#N)(c1ccccc1)N(CCc1ccccc1)C(=O)Oc1ccccc1 (configuration not stated) | > 100 µM (inactive) | > 100 µM (inactive) | > 100 µM (inactive) | > 100 µM (inactive) | > 100 µM (inactive) | > 100 µM (inactive) | 10.9 µM (inactive) | > 100 µM (inactive) | > 100 µM (inactive) | > 100 µM (inactive) | > 100 µM (inactive) | > 100 | 30.7 µM (inactive) | > 100 µM (inactive) | > 100 µM (inactive) | > 100 µM (inactive) | > 100 µM (inactive) | > 100 µM (inactive) | > 100 µM (inactive) |
